The text below walks through data of patent US6656958B2, “Substituted pyridine compounds useful for controlling chemical synaptic transmission” (Abbott Laboratories, priority 2000, dated 2003).

What is called pKi is −log10 of the Ki, conventionally taken in molar units. The melting point is the temperature, or range, at which the solid turns liquid.

pKi: −log10 of the molar value. Where only a bound is given, the exact number is not on record here.

Series [1] has as its system mice (hot plate paradigm). Kind of series: mouse hot plate paradigm (analgesia, tenth jump latency). The class given is in vivo. As to conditions: footnote symbols: no significant effect at the stated dose, intraperitoneal, 30 minutes prior to testing, hot plate 55° C. How it is done: An in vivo protocol was utilized to determine the effectiveness of nicotinic acetylcholine receptor ligands as analgesic agents in the mouse hot plate paradigm.
Separate groups of mice, (n=8/group) were utilized for each dose group. All drugs were administered by the intraperitoneal route of administration. Test drugs were dissolved in water to make a 6.2 mM stock solution. Animals were dosed with this solution (10 mL/kg body weight) for a 62 micromol/kg dose. Lower doses were administered similarly, following serial dilution of the stock solution in half-log increments. Animals were dosed 30 minutes prior to testing in the hot plate. The hot-plate utilized was an automated analgesia monitor (Model #AHP16AN, Omnitech Electronics, Inc. of Columbus, Ohio). The temperature of the hot plate was maintained at 55° C. and a cut-off time of 180 seconds was utilized. A control was run against each compound tested. Latency until the tenth jump was recorded as the dependent measure. An increase in the tenth jump latency relative to the control was considered a significant effect.

In series [2] the target is neuronal nicotinic acetylcholine receptors (Rattus norvegicus, UniProt P09483+P12390). Kind of series: [3H]-cytisine binding to neuronal nicotinic acetylcholine receptors, crude synaptic membranes from whole rat brain. As to conditions: [3H]-CYT 1.25 nM, 60 minutes at 4° C., K1 from IC50 by Cheng and Prusoff correction. As for the experimental part: The in vitro protocols for determination of nicotinic acetylcholine channel receptor binding potencies of ligands was determined as follows.
Binding of [^3H]-cytisine ([^3H]-CYT) to neuronal nicotinic acetylcholine receptors was accomplished using crude synaptic membrane preparations from whole rat brain (Pabreza et al., Molecular Pharmacol., 1990, 39:9). Washed membranes were stored at −80° C. prior to use. Frozen aliquots were slowly thawed and resuspended in 20 volumes of buffer (containing: 120 mM NaCl, 5 mM KCl, 2 mM MgCl2, 2 mM CaCl2 and 50 mM Tris-Cl, pH 7.4 @4° C.). After centrifuging at 20,000×g for 15 minutes, the pellets were resuspended in 30 volumes of buffer.
The test compounds were dissolved in water to make 10 mM stock solutions.
Samples were incubated for 60 minutes at 4° C., then rapidly filtered through Whatman GF/B filters presoaked in 0.5% polyethyleneimine using 3×4 mL of ice-cold buffer. The filters are counted in 4 mL of Ecolume® (ICN). Nonspecific binding was determined in the presence of 10 μM (−)-nicotine and values were expressed as a percentage of total binding. IC50 values were determined with a four-parameter non-linear regression and IC50 values were converted to K1 values using the Cheng and Prusoff correction (K1=IC50/(1+[ligand]/Kd of ligand).
Each Example number corresponds to the synthetic Examples described above.

Chain of neuronal nicotinic acetylcholine receptors (P09483 31-630): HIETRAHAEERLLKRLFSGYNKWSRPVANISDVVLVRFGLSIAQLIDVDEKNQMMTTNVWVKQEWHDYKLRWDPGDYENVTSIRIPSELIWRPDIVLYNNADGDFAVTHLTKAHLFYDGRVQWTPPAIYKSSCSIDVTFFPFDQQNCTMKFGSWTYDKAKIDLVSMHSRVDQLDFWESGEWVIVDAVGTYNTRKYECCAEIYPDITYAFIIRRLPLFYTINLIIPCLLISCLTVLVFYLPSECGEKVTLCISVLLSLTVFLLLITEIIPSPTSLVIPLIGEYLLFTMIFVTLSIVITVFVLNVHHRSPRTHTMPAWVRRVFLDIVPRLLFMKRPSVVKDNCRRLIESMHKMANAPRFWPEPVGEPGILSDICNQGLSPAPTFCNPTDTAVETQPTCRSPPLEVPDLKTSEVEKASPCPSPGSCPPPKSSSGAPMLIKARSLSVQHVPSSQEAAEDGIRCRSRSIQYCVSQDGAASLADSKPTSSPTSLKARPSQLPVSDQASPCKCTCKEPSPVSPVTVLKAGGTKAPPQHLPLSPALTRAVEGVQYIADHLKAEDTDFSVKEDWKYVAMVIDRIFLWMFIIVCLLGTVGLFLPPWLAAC
Chain of neuronal nicotinic acetylcholine receptors (P12390 25-500): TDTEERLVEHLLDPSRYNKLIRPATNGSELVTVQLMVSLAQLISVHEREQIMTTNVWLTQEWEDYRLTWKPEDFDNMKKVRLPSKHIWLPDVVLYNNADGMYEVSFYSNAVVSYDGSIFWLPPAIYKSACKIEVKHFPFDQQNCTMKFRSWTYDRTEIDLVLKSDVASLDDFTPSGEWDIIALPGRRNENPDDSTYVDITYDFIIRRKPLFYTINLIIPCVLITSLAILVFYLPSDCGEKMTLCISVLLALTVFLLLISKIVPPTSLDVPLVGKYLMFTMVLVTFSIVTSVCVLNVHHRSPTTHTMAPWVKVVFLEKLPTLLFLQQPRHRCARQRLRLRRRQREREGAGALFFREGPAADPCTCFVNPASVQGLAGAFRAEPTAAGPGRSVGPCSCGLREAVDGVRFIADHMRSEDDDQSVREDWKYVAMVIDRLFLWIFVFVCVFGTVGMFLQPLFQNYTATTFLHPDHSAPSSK

In the case of `C[C@@H](COc1ccc(Cl)nc1)N(C)C.Cc1ccc(S(=O)(=O)O)cc1` [Example 27, 5-[(S)-2-dimethylamino-1-propyloxy]-2-chloro pyridine p-toluenesulfonic acid], the “Analgesic MED (μmol/kg)” value in series [1] was “* (no effect at 62)”.
Take “5-[(S)-2-amino-1-propyloxy]-2-chloro-3-(4-vinylpyridinyl)pyridine p-toluenesulfonic acid [Example 13]”: the negative-log Ki (pKi) in series [2] is 10.12.
Compound `C[C@@H](COc1cnc(Cl)c(C=Cc2ccncc2)c1)N(C)C` (single isomer, unassigned) [Example 14] yielded a melting point of 79 to 81 °C. Also, in series [1], the “Analgesic MED (μmol/kg)” value was “* (no effect at 62)”.
Regarding `CN(C)[C@H](COc1cnc(Cl)c(C=Cc2ccncc2)c1)Cc1ccccc1` [Example 24, 5-[(S)-2-N-dimethyl-amino-3-phenyl-1-propyloxy]-2-chloro-3-(4-vinylpyridinyl)pyridine di-p-toluenesulfonic acid], the minimal effective dose in series [1] (Mus musculus, ip, 0.5 h, read-out: Analgesic MED) was > 62 µmol/kg.
`C[C@H](COc1cnc(Cl)c(C=Cc2ccncc2)c1)N(C)C` (single isomer, unassigned) [Example 39] showed a melting point of 81 to 83 °C. In addition, the “Analgesic MED (μmol/kg)” value in series [1] is “* (no effect at 62)”.
